# From article PMC7777204, “Locking mixed-lineage kinase domain-like protein in its auto-inhibited state prevents necroptosis” (Proceedings of the National Academy of Sciences of the …, 2020)
# What was measured:
# Jurkat FADD−/− cells [1] = test: Jurkat FADD−/− necroptosis assay; format: cell-based; conditions: Homo sapiens, 10 ng/mL huTNFα, 24 h, Cell Titer Glo viability, read-out: Jurkat NEC IC50
# Procedure: (§1) For the Jurkat FADD^−/− Necroptosis assay, compounds were serially diluted in 100% dimethyl sulfoxide (DMSO) (Sigma-Aldrich catalog no. 41641), and 250 nL was transferred to a sterile 384-well microtiter plate (PerkinElmer catalog no. 6007688) via Echo liquid handler (LABCYTE). Five thousand Jurkat FADD ^−/− cells (ATCC catalog no. CRL-2572) in 20 µL of modified Roswell Park Memorial Institute medium (Gibco catalog no. 10491), 10% fetal calf serum (Gibco catalog no. 100500), 1x Anti/Anti (Gibco catalog no. 15240-062), 1x L-Glutamax (Gibco catalog no. 35050-087), and 1% PenStrep (SIGMA catalog no. P4333) were seeded into each well of the prepared assay plate with compound. Cells and compounds were incubated for 30 min at 37 °C (humidified incubator with 5% CO2). After incubation, 5 µL of recombinant human TNFα (huTNFα) (Biotrend catalog no. cyt-223; 10 ng/mL final concentration [f.c.]) was added to the cells, followed by an incubation of 24 h at 37 °C. Following the incubation, the experimental plates were equilibrated to room temperature (30 min) before 25 µL of Cell Titer Glo Luminescent Cell Viability Assay System reagent (Promega catalog no. G7571) was added to the plate wells, incubated at room temperature for ∼10 min. After incubation, the samples were analyzed for luminescence by using an Envision reader (PerkinElmer).
# Each assay plate contained wells with “high” and “low” controls. High controls (100% CTL) were defined as cells treated with DMSO, and low controls (0% CTL) were defined as cells treated with 10 ng/mL recombinant huTNFα. IC50 values were calculated based on the percentage of control values using a four-parameter-fitting model.
# (§2) All cellular assays were done for Cpd 1, Cpd 2, Cpd 3, Cpd 4, and Cpd 5 in duplicate and in quadruplet for NSA.
# Jurkat FADD−/− cells [2] = test: Jurkat FADD−/− cytotox assay; format: cell-based; conditions: Homo sapiens, without huTNFα, Cell Titer Glo viability, read-out: Jurkat TOX IC50
# Procedure: as §1
# MLKL antagonists were tested in cytotox assays by using Jurkat FADD^−/− and U937 cells according to the assay procedures described for the necroptosis assays, but without treatment with recombinant huTNFα and/or zVAD-fmk. High controls (100% CTL, no effect) were defined as cells treated with DMSO, and low controls (0% CTL) were defined as medium without cells (0% CTL, maximal effect).
# as §2
# MLKL executioner domain = target: T1, MLKL executioner domain (Homo sapiens, UniProt Q8NB16); test: Real-time NMR of MLKL oligomerization; format: biochemical; conditions: after 48 h, 50 µM IP6, 12 mM NM, 500 µM Cpd 3, 300 µM MLKL, 298 K
# T1 construct: 80 µM MLKL N-terminal executioner domain (residues 1 to 154) was used; GST (thrombin cleavage site) (cleaved yes)
# T1 sequence (Q8NB16 1-154): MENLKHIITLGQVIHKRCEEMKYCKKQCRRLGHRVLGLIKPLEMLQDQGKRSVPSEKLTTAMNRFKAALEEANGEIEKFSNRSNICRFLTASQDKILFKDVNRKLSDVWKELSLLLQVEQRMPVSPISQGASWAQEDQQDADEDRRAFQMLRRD
# Procedure: While MLKL was stable in the presence of either 500 µM IP6 or 12 mM NM (SI Appendix, Fig. S13), dispersed peaks were disappearing over time in the presence of the combination of the two. Monitoring this decay by real-time NMR, a series of ^1H,^15N-correlation spectra were recorded in the presence of 12 mM NM and 50 µM IP6. The latter concentration was reduced to slow down the process to enable real-time NMR detection, because at 500 µM IP6 concentration, 86% activation could be observed in the functional assay in the ^1H,^15N-correlation spectrum measured directly after sample preparation. The loss of peak intensity can be fitted with a biexponential decay with a fast time constant (Tf) of 0.35 ± 0.07 h and a slow time constant (Ts) of 10.0 ± 1.0 h. […] In addition to the known peaks reporting on the active state with α-helix 6 being detached (Ala141 N,H and Trp133 Nε1,Hε1), peaks in the random coil region of the spectrum appeared (Fig. 4A). […] Secondary chemical shifts confirmed that α-helix 6 becomes largely unfolded and has, according to ^15N-relaxation data, increased mobility (τC = 10 ns) and reduced rigidity (heteronuclear NOE around zero) in the activated state (SI Appendix, Fig. S10).
# After 48 h, these signals decayed only to ∼70% intensity. Cross-peaks reporting on the unfolded, detached α-helix 6 likewise appeared more slowly in the presence of Cpd 3 (Fig. 4 B–D). […]
# U937 cells = test: U937 apoptosis assay; format: cell-based; conditions: Homo sapiens, U-937, 100 ng/mL huTNFα plus 3 µM NSA, read-out: U937 APOP IC50
# Procedure: MLKL antagonists were also evaluated in a necroptosis assay with U937 cells ([26]) (ATCC catalog no. CRL-1593.2). The assay procedure with U937 cells was as described for the Jurakt FADD^−/− necroptosis assay with the following modifications: 8,000 cells were seeded per well, and, in addition to the recombinant huTNFα, cells were also incubated in the presence of 10 µM (f.c.) carbobenzoxy-valyl-alanyl-aspartyl-[O-methyl]-fluoromethylketone (zVAD-fmk) (Enzo Life Sciences catalog no. ALX-260-020). Low controls (0% CTL) were defined as cells treated with 100 ng/mL recombinant huTNFα plus 10 µM zVAD-fmk.
# Furthermore, MLKL antagonists were tested in a U937 apoptosis assay in the presence of 3 µM (f.c.) NSA (Tocris catalog no. 5025) and 100 ng/mL (f.c.) recombinant huTNFα in the same way as described for the U937 necroptosis assay. Low controls (0% CTL) were defined as cells treated with 100 ng/mL recombinant huTNFα plus 3 µM NSA.
# as §2
compound,measurement,setting,value
Cn1c(=O)c2c(nc(S(C)(=O)=O)n2C)n(CC#Cc2cccc(O)c2)c1=O [Cpd 3],IC50,Jurkat FADD−/− cells [1],0.541 µM
same,IC50,Jurkat FADD−/− cells [2],13.6 µM
same,Remaining intensity of dispersed signals,MLKL executioner domain,~70%
same,IC50,U937 cells,> 100 µM
